Results taken from US9511055B2, “Angiotensin in treating brain conditions” (TARIX PHARMACEUTICALS LTD., priority 2012, dated 2016).

Key:
Assay type in all cases: in vivo
[1] = tested on: MCAO rat model of ischemic stroke; test: Modified Neurological Rating Scale (mNRS) evaluation after tMCAO; details: Example 1, continuous s.c. Alzet pump
Experimental: (§1) For the purposes of this example, Transient middle cerebral artery occlusion (tMCAO) procedure Day is defined as “Day 1” in this study. On the day of surgery anesthesia were induced with 4% isoflurane in a mixture of 70% N2O and 30% O2 and maintained with 1.5-2% isoflurane.
The tMCAO procedures were performed according to the method described R. Schmid-Elsaesser et al. Briefly, the right CCA (Common Carotid Artery) was exposed through a midline neck incision and carefully dissected free from surrounding nerves and fascia—from its bifurcation to the base of the skull. The occipital artery branches of the ECA (External Carotid Artery) were then isolated, and these branches were dissected and coagulated. The ECA was dissected further distally and coagulated along with the terminal lingual and maxillary artery branches, which was then divided. The ICA (Internal Carotid Artery) was isolated and carefully separated from the adjacent vagus nerve, and the pterygopalatine artery was ligated close to its origin with a 5-0 nylon suture (SMI, Belgium). Next, a 4-0 silk suture was tied loosely around the mobilized ECA stump, and a 4 cm length of 4-0 monofilament nylon suture (the tip of the suture was blunted by using a flame, and the suture was coated with polylysine, prior to insertion) was inserted through the proximal ECA into the ICA and thence into the circle of Willis, effectively occluding the MCA. The surgical wound was closed and the animals were returned to their cages to recover from anesthesia. One hour and a half after occlusion rats were re-anesthetized, the monofilament was withdrawn to allow reperfusion, the surgical wound was closed and rats were returned to their cages. […]
The Modified Neurological Rating Scale (mNRS) was administered by an individual who was unaware of the drug/dose given (blind test). […] Four groups were analyzed in this test, a control group (receiving only PBS for 49 days), a group receiving 50 μg/kg PanCyte for 49 days, a group receiving 500 μg/kg PanCyte for 49 days, and a group receiving 50 μg/kg PanCyte for 14 days. […]

[2] = tested on: MCAO rat model of ischemic stroke; test: Forelimb placement test after tMCAO; details: for forelimb placing test performance vs control: Example 1, continuous s.c. Alzet pump
Experimental: as §1
(§2) The tMCAO procedures were performed according to the method described R. Schmid-Elsaesser et al. Briefly, the right CCA (Common Carotid Artery) was exposed through a midline neck incision and carefully dissected free from surrounding nerves and fascia—from its bifurcation to the base of the skull. The occipital artery branches of the ECA (External Carotid Artery) were then isolated, and these branches were dissected and coagulated. The ECA was dissected further distally and coagulated along with the terminal lingual and maxillary artery branches, which was then divided. The ICA (Internal Carotid Artery) was isolated and carefully separated from the adjacent vagus nerve, and the pterygopalatine artery was ligated close to its origin with a 5-0 nylon suture (SMI, Belgium). Next, a 4-0 silk suture was tied loosely around the mobilized ECA stump, and a 4 cm length of 4-0 monofilament nylon suture (the tip of the suture was blunted by using a flame, and the suture was coated with polylysine, prior to insertion) was inserted through the proximal ECA into the ICA and thence into the circle of Willis, effectively occluding the MCA. The surgical wound was closed and the animals were returned to their cages to recover from anesthesia. One hour and a half after occlusion rats were re-anesthetized, the monofilament was withdrawn to allow reperfusion, the surgical wound was closed and rats were returned to their cages.
(§3) Animals were subjected to a modified Modified Neurological Rating Scale (mNRS) at 24 hours post reperfusion. Only animals with an overall score of ≧10 are included in this study. Animals were allocated into the test groups, according to the mNRS results on day 2, in order to have similar distribution of rats performance between groups. Started on day 2, 24 hours post-surgery, each animal is implanted subcutaneously with osmotic Alzet pump and is treated by continuous PanCyte administration (2.5 mg/ml or 25 mg/ml in PBS; SEQ ID NO:22).
The limb placing tests were divided into both forelimb and hindlimb tests. For the forelimb-placing test, the examiner held the rat close to a tabletop and scored the rat's ability to place the forelimb on the tabletop in response to whisker, visual, tactile, or proprioceptive stimulation. Similarly, for the hindlimb placing test, the examiner assessed the rat's ability to place the hindlimb on the tabletop in response to tactile and proprioceptive stimulation. […]

[3] = tested on: MCAO rat model of ischemic stroke; test: Body swing test after tMCAO; details: for body swing test performance vs control: continuous s.c. Alzet pump; for body swing test performance vs vehicle control / body swing test performance level: Example 2, 28 days; for body swing test performance level: Day 49
Experimental: as §1, §2, §3
The rat was held approximately one inch from the base of its tail. It was then elevated to an inch above a surface of a table. The rat was held in the vertical axis, defined as no more than 10° to either the left or the right side. A swing was recorded whenever the rat moved its head out of the vertical axis to either side. Before attempting another swing, the rat had to return to the vertical position for the next swing to be counted. Twenty (20) total swings were counted. A normal rat typically has an equal number of swings to either side. Following focal ischemia, rats tend to swing to the contralateral side (left side in this example). Body swing scores are expressed as a percentage of rightward over total swings. […] Four groups were analyzed in this test, a control group (receiving only PBS for 49 days), a group receiving 50 μg/kg PanCyte for 49 days, a group receiving 500 μg/kg PanCyte for 49 days, and a group receiving 50 μg/kg PanCyte for 14 days.
Animals were subjected to a modified Modified Neurological Rating Scale (mNRS) at 24 hours post reperfusion. Only animals with an overall score of ≧10 were included in this study. Animals were allocated into the test groups, according to the mNRS results on day 2, in order to have similar distribution of rats performance between groups. Starting on day 2, 24 hours post-surgery, animals in groups 4, 5 and 7 were implanted subcutaneously with an osmotic Alzet pump and treated with either 500 μg/kg TXA127 (SEQ ID NO:1), 500 μg/kg PanCyte (SEQ ID NO:22), or 50 μg/kg Linear PanCyte (SEQ ID NO:6). Animals in groups 2, 3 and 6 received 500 μg/kg or 1,000 μg/kg TXA127 or 500 μg/kg PanCyte, administered subcutaneously via daily injection. […]

[4] = tested on: MCAO rat model of ischemic stroke; test: Stepping test (forelimb akinesia) after tMCAO; details: for stepping test performance vs control: day 15; for stepping test performance vs vehicle control: all experimental conditions (s.c. daily injection or Alzet pump, 28 days), by Day 21 post-surgery
Experimental: as §1, §2, §3
Animals were tested for forelimb akinesia in a stepping test. The animal was held with its hind limbs fixed with one hand and the forelimb not monitored with the other, while the unrestrained fore-paw touches a table. The number of adjusting steps were counted while the animal was moved sideways along the table surface (85 cm in approximately five seconds), in the forehand & backhand direction for both forelimbs. […] Four groups were analyzed in this test, a control group (receiving only PBS for 49 days), a group receiving 50 μg/kg PanCyte for 49 days, a group receiving 500 μg/kg PanCyte for 49 days, and a group receiving 50 μg/kg PanCyte for 14 days.
(§4) Animals were subjected to a modified Modified Neurological Rating Scale (mNRS) at 24 hours post reperfusion. Only animals with an overall score of ≧10 were included in this study. Animals were allocated into the test groups, according to the mNRS results on day 2, in order to have similar distribution of rats performance between groups. Starting on day 2, 24 hours post-surgery, animals in groups 4, 5 and 7 were implanted subcutaneously with an osmotic Alzet pump and treated with either 500 μg/kg TXA127 (SEQ ID NO:1), 500 μg/kg PanCyte (SEQ ID NO:22), or 50 μg/kg Linear PanCyte (SEQ ID NO:6). Animals in groups 2, 3 and 6 received 500 μg/kg or 1,000 μg/kg TXA127 or 500 μg/kg PanCyte, administered subcutaneously via daily injection. Animals in group 1 were treated with a daily subcutaneous injection of a PBS (vehicle).
Animals were tested for forelimb akinesia in a stepping test (ST). The animal was held with its hind limbs fixed with one hand and the forelimb not to be monitored with the other, while the unrestrained fore-paw touches the table. […]

[5] = tested on: MCAO rat model of ischemic stroke; test: Overall post-stroke performance in tMCAO rats, Example 2 comparison; details: 50 μg/kg Linear PanCyte as compared to 500 μg/kg of PanCyte
Experimental: The animal model, surgical procedures, and animal care procedures and conditions were as described above for Example 1 unless otherwise specified.
as §4
In addition to the performance benefits discussed above, blood flow and blood vessel diameter was measured using Laser Doppler, according to known protocols, in each non-Alzet group on Day 50.

CCC(C)C1NC(=O)C(NC(=O)C(NC(=O)C(CCCNC(=N)N)NC(=O)C(N)CC(=O)O)C(C)C)CSCC(C(=O)O)NC(=O)C(Cc2c[nH]cn2)NC1=O (centres unmarked) [PanCyte, Asp^1-Arg^2-Val^3-Ser^4-Ile^5-His^6-Cys^7 (SEQ ID NO: 22)]
mNRS performance vs control ([1]; 50 μg/kg for 49 days, days 8 and 15): statistically improved performance on days 8 and 15
mNRS performance vs control ([1]; 500 μg/kg for 49 days, day 22): statistically improved performance on day 22
mNRS performance vs control ([1]; each PanCyte group (50 μg/kg 49 days, 500 μg/kg 49 days, 50 μg/kg 14 days), day 29 and 36): improved performance on the test by day 29
forelimb placing test performance vs control ([2]; 50 μg/kg for 14 days, from day 15): performed significantly better than control animals beginning on day 15
forelimb placing test performance vs control ([2]; each PanCyte group (50 μg/kg 49 days, 500 μg/kg 49 days, 50 μg/kg 14 days), day 29, continued to day 36): increased performance on this test by day 29
forelimb placing test performance vs control ([2]; other treatment groups (50 μg/kg 49 days, 500 μg/kg 49 days), trending before day 29): did not reach statistical significance until day 29
body swing test performance vs control ([3]; Example 1, 50 μg/kg for 14 days, from day 29): showed statistical significance beginning on day 29
body swing test scores vs control ([3]; Example 1, all treatment groups, from day 8): trend toward improved scores beginning on day 8
body swing test performance vs control ([3]; Example 1, each PanCyte group (50 μg/kg 49 days, 500 μg/kg 49 days, 50 μg/kg 14 days), day 36): improved performance on the test by day 36
body swing test performance vs vehicle control ([3]; 500 μg/kg daily s.c. injection, Day 28): significant improvement in performance by Day 28
body swing test performance vs vehicle control ([3]; PanCyte Alzet group, 500 μg/kg s.c. Alzet pump, Day 21): showed improvement by Day 21
body swing test performance vs vehicle control ([3]; PanCyte Alzet group, 500 μg/kg s.c. Alzet pump, Day 28): significant improvement in performance by Day 28
stepping test performance vs control ([4]; Example 1, 50 μg/kg for 14 days, continuous s.c. Alzet pump, trending toward improvement): did not reach statistically significant levels
stepping test performance vs control ([4]; Example 1, 50 μg/kg for 49 days, continuous s.c. Alzet pump): performed significantly better than controls
stepping test performance vs control ([4]; Example 1, 500 μg/kg for 49 days, continuous s.c. Alzet pump, trending toward improvement): did not reach statistically significant levels
stepping test performance (number of adjusting steps) vs control ([4]; Example 1, each PanCyte group (50 μg/kg 49 days, 500 μg/kg 49 days, 50 μg/kg 14 days), continuous s.c. Alzet pump, day 22, continued through day 36): increased performance of rats by day 22
stepping test performance vs vehicle control ([4]; Example 2): significantly improved the performance of treated rats

Asp^1-Arg^2-Val^3-Tyr^4-Ile^5-His^6-Pro^7 (SEQ ID NO: 1) (DRVYIHP) [TXA127]
body swing test performance vs vehicle control ([3]; 500 μg/kg daily s.c. injection, before Day 35): did not show significant results until Day 35
body swing test performance vs vehicle control ([3]; 500 μg/kg s.c. Alzet pump, Day 21): showed improvement by Day 21
body swing test performance vs vehicle control ([3]; 500 μg/kg s.c. Alzet pump, Day 28): significant improvement in performance by Day 28
body swing test performance vs vehicle control ([3]; 1,000 μg/kg daily s.c. injection, Day 21): showed improvement by Day 21
body swing test performance vs vehicle control ([3]; 1,000 μg/kg daily s.c. injection, Day 28): significant improvement in performance by Day 28
body swing test performance level ([3]; TXA 1,000 g/kg group, daily s.c. injection): near-normal (uninjured) level
body swing test performance level ([3]; TXA Alzet group, 500 μg/kg s.c. Alzet pump): near-normal (uninjured) level
stepping test performance vs vehicle control ([4]; Example 2): significantly improved the performance of treated rats

Asp^1-Arg^2-Val^3-Ser^4-Ile^5-His^6-Cys^7 (SEQ ID NO:6) (DRVSIHC) [Linear PanCyte, non-cyclized form of PanCyte]
effectiveness compared with PanCyte [5]: almost equally effective
forelimb placing test performance compared with the other experimental groups ([2]; Example 2, 50 μg/kg, s.c. Alzet pump, 28 days, particularly from Day 35 onward): best performance
body swing test performance vs vehicle control ([3]; 50 μg/kg s.c. Alzet pump, Day 21): showed improvement by Day 21
body swing test performance vs vehicle control ([3]; 50 μg/kg s.c. Alzet pump, Day 28): significant improvement in performance by Day 28
body swing test performance level ([3]; 50 μg/kg s.c. Alzet pump): near-normal (uninjured) level
stepping test results compared with ten times as much TXA127 or PanCyte ([4]; Example 2, 50 ug/kg, s.c. Alzet pump, 28 days, vs 500 μg/kg TXA127 or PanCyte): substantially equivalent
stepping test performance vs vehicle control ([4]; Example 2): significantly improved the performance of treated rats
